The record followed here is US20250143990A1, “SKIN MICROBIOME FRIENDLY SUNSCREENS” (BASF SE, priority 2022, published 2025).

This data set is described as follows: Solubility in water. Format: physicochemical.

SMILES strings stand for the structures.

On to `CC(C)(C)CC(C)(C)c1cc(Cc2cc(C(C)(C)CC(C)(C)C)cc(-n3nc4ccccc4n3)c2O)c(O)c(-n2nc3ccccc3n2)c1` [2,2′-methylene bis[6-(2H-benzotriazol-2-yl)-4-(1,1,3,3-tetramethylbutyl)phenol]], for which the solubility in water entry is “ng/L range”.
